Source: US6691045B1, “Method for determining discrete quantitative structure activity relationships” (Chemical Computing Group Inc., priority 1998, dated 2004)

Columns and labels:
[1] = molecular target: T1, Carbonic Anhydrase II receptor (Homo sapiens, UniProt P00918); conditions: example initial data set; cited from earlier work
[2] = molecular target: T1, Carbonic Anhydrase II receptor; experiment: binding affinity to Carbonic Anhydrase II, from scientific literature; conditions: threshold value 5.85
Excerpt: Each compound is given a numerical value indicating its binding affinity. Beside each drawing in Table 1, is a quantitative experimental assessment of binding affinity.
Otherwise, it would be 1.

estrogen receptor = conditions: relative binding affinity scale, estradiol = 100; binding at 0 to 4° C.; presumed ER-α; cited from earlier work

Structure (SMILES) | ACTIVITY (quantitative experimental assessment of binding affinity) [1] | CLASS (activity class, active/inactive) ([2]; structures as SMILES) | CLASS (activity class, active/inactive) ([2]; structures as drawings) | log RBA (estrogen receptor)
CNS(=O)(=O)c1cccc(O)c1 | 5.92 | 1 (Otherwise, it would be 1) | 1 (Otherwise, it would be 1) | 
CC(=O)Nc1nnc(S(=O)(=O)NC(C)C)s1 | 5.80 | 0 (If the activity value is less than 5.85, the activity class is 0) | 0 (If the activity value is less than 5.85, the activity class is 0) | 
CC/C(=C(/CC)c1ccc(O)cc1)c1ccc(O)cc1 [DES, desthylstilbestrol] |  |  |  | 2.48
